Results as given in article PMC13064039, “Exploring the binding interaction of rupatadine with bovine serum albumin using multi-spectroscopic and molecular modeling approaches” (BMC Chemistry, 2026).

Assays:
[1] = molecular target: T1, bovine serum albumin (BSA) (Bos taurus, UniProt P02769); assay: Fluorescence quenching of BSA by RUPA (Stern-Volmer, modified Stern-Volmer, van't Hoff analysis); format: binding; conditions: for Ksv (Stern-Volmer quenching constant): BSA 2 µM, RUPA 0-100 µM
Procedure: The fluorescence data were corrected for the inner filter effect (IFE) according to the Lakowicz method to ensure that the obtained binding parameters were not impacted by absorption artifacts.
To account for the possible influence of inner filter effects (IFE), the fluorescence intensities were corrected using the following formula (Eq. 1): 1
The process of fluorescence quenching was determined using the Stern-Volmer equation (Eq. 2): 2
The KSV and Kq values were determined by the graph of F0/F against [Q]
Stoichiometric analysis is used to define the various equilibria for a macromolecule’s binding of a ligand by binding sites (n). The number of binding sites (n) and the binding constant (Kb) were calculated using the modified Stern–Volmer equation (Eq. 3). 3
The thermodynamic characteristics of the binding reaction serve as the primary evidence for the binding force. Hydrogen bonds, hydrophobic forces, electrostatic interactions, van der Waals interactions, and other binding forces could all be present between small molecules and biomacromolecules. The temperature dependence of the binding constant was thus measured for this purpose at three distinct temperatures: 303, 310, and 318 K (Fig. 4).
The Gibbs–Helmholtz equation provided below was used to assess the free energy change (ΔG) value (Eq. 5).

[2] = molecular target: T1, bovine serum albumin (BSA); assay: Competitive binding analysis using site probes (phenylbutazone site I, diazepam site II); conditions: site marker competition
Procedure: Phenylbutazone and diazepam are the site probes for sites Ⅰ and Ⅱ, respectively. The BSA and site probe concentrations in this experiment were maintained at 2 µM and 10 µM, respectively. Rupatadine concentrations ranged from 10 to 100 µM. After excitation at 279 nm, fluorescence intensity measurements were made at 341 nm. At 303 K, measurements were made.

[3] = molecular target: T1, bovine serum albumin (BSA); assay: Synchronous fluorescence of BSA with RUPA; format: binding; conditions: RUPA 0-100 µM, BSA 2 µM, 303 K
Excerpt: Using synchronous fluorescence, the influence of the ligand on the protein has been thoroughly investigated. The distinctive details regarding the protein’s Tyr and Trp residues can be gained by fixing the scanning interval (∆λ) between the excitation and emission wavelengths at 15 and 60 nm, respectively.

[4] = molecular target: T1, bovine serum albumin (BSA); assay: FT-IR spectroscopy of BSA with and without RUPA; conditions: BSA 2 µM + RUPA 40 µM, pH 7.4, 303 K; free BSA 1646
[5] = design: method as in PMID 23160091; conditions: cited from earlier work
[6] = system: ovarian cancer cells (platelet-activating factor receptor); design: method as in PMID 34571986; conditions: in vitro; targets the platelet-activating factor receptor; cited from earlier work

T1 sequence (P02769 25-607): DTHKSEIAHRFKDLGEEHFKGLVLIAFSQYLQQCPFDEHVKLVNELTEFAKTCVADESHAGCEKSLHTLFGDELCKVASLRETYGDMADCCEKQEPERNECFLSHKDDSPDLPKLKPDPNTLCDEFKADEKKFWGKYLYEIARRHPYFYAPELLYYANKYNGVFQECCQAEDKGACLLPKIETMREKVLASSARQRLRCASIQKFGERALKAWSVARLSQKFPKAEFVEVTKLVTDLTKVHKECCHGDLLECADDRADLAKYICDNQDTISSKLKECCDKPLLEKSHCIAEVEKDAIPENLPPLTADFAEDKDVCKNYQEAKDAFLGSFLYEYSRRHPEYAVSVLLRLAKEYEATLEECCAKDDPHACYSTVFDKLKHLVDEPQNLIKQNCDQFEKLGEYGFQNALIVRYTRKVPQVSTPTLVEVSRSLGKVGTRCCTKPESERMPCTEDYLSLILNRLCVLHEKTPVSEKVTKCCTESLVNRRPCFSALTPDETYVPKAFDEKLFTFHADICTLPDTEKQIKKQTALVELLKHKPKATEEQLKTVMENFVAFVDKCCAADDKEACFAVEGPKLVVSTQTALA

n (number of binding sites) ([1]; 303 K): 0.57 | Ksv (Stern-Volmer quenching constant) ([1]; 303 K, pH 7.4): 1.07 × 10^4 L.mol^− 1 | n (number of binding sites) ([1]; 310 K): 0.83 | Ksv (Stern-Volmer quenching constant) ([1]; 310 K, pH 7.4): 0.82 × 10^4 L.mol^− 1 | Kq (quenching rate constant) ([1]; 310 K, τ0 = 10^-8 s): 0.82 × 10^12 L.mol^− 1.s^− 1 | n (number of binding sites) ([1]; 318 K): 1.06 | Ksv (Stern-Volmer quenching constant) ([1]; 318 K, pH 7.4): 0.48 × 10^4 L.mol^− 1 | ∆G^o (Gibbs free energy change) ([1]; pH 7.4, 303 K): -3.4823 kcal/mol | ∆G^o (Gibbs free energy change) ([1]; pH 7.4, 318 K): -5.2287 kcal/mol | ∆H^o (enthalpy change) ([1]; pH 7.4, van't Hoff, 303-318 K): 31.7935 kcal/mol | ∆S^o (entropy change) ([1]; pH 7.4, van't Hoff, 303-318 K): 0.487 KJ mol^− 1 K^− 1 | enthalpy change (ΔH) ([1]; within the examined temperature range): 133.024 kJ mol^− 1 | binding site of RUPA on BSA [2]: site I | shift in synchronous fluorescence ([3]; ∆λ = 15 nm (Tyr)): no shift | red shift of ∆λmax in synchronous fluorescence ([3]; ∆λ = 60 nm (Trp)): about 2 nm | amide I peak location of BSA following the RUPA reaction [4]: 1642 cm^− 1
Compound: Cc1cncc(CN2CCC(=C3c4ccc(Cl)cc4CCc4cccnc43)CC2)c1 [RUPA, 13-chloro-2-[1-[(5-methylpyridin-3-yl)methyl]piperidin-4-ylidene]−4-azatricyclo [9.4.0.03,8] pentadeca-1(11),3(8),4,6,12,14-hexaene]
attached to plasma proteins [5]: approximately 99% | effect on ovarian cancer cell proliferation and migration [6]: prevent ovarian cancer cells from proliferating and migrating
